Our source for the melting point, inhibition of growth and pest or weed control values is US10798941B2, “Microbiocidal oxadiazole derivatives” (SYNGENTA PARTICIPATIONS AG, priority 2016, dated 2020).

Bounds are passed on as bounds.

For data set [1], the system named is Glomerella Lagenarium (Colletotrichum Lagenarium). As to the kind of experiment: Glomerella lagenarium (Colletotrichum lagenarium) liquid culture / cucumber / preventative (anthracnose). It counts as cell-based. The note with it: Colletotrichum orbiculare; 20 ppm in the applied formulation; liquid culture in PDB, 24° C., inhibition of growth measured photometrically 3 to 4 days after application, vs untreated; read-out: disease control. Put shortly:
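Conidia from cryogenic storage were mixed into potato dextrose broth. This was added to compound diluted from DMSO into 0.025% Tween20, tested at 20 ppm. Plates were incubated in the dark at 24 °C and 96% relative humidity, and growth was read photometrically after 2–7 days as % activity versus untreated check.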

The test system of another data set is Phakopsora pachyrhizi. The data set is described as follows: Phakopsora pachyrhizi / soybean / leaf disc preventative (Asian soybean rust). It is filed as in vivo. The following applies: foliar, 288 h, 200 ppm in the applied formulation, soybean leaf disks, inoculated one day after application, assessed 12 to 14 days after application, vs untreated, read-out: disease control. Put shortly: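 Read-out is percent disease control relative to untreated check discs, assessed once untreated discs show adequate disease, 12 to 14 days after application. Compounds, tested at 200 ppm in the applied formulation, are sprayed onto soybean leaf discs one day before inoculation with a spore suspension.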

The test system of data set [2] is Puccinia recondita f. Sp. Tritici. As to the kind of experiment: Puccinia recondita f. sp. tritici / wheat / leaf disc curative (brown rust). It counts as in vivo. The following applies: foliar, 144 h, 200 ppm in the applied formulation, wheat leaf segments cv. Kanzler, applied 1 day after inoculation, assessed 6 to 8 days after application, vs untreated, read-out: disease control. Put shortly:
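Segments of wheat (cultivar Kanzler) sit on agar and are spore-inoculated first; after one day in darkness at 19° C and 75% RH the diluted formulated compound is sprayed on. A 12 h photoperiod follows at the same temperature and humidity before disease is scored against untreated controls.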

Data set [3] shares this test system. The data set is described as follows: Puccinia recondita f. sp. tritici / wheat / leaf disc preventative (brown rust). It counts as in vivo. The following applies: foliar, 168 h, 200 ppm in the applied formulation, wheat leaf segments cv. Kanzler, preventative, inoculated 1 day after application, assessed 7 to 9 days after application, vs untreated, read-out: disease control. Put shortly:
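Preventative leaf-segment test: spray application of diluted formulated compound on wheat cv. Kanzler, spore inoculation after 1 day. Percent control relative to untreated segments rated 7 to 9 days post-application, with incubation at 19° C, 75% relative humidity, 12 h photoperiod.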

In the case of `FC(F)(F)c1nc(-c2ccc(Cn3cc(-c4ccccn4)nn3)cc2)no1` [Compound 1.22, 3-[4-[[4-(2-pyridyl)triazol-1-yl]methyl]phenyl]-5-(trifluoromethyl)-1,2,4-oxadiazole], the melting point (usually the temperature, or range, at which the solid turns liquid) was 160.2 to 162.4 °C. In addition, the inhibition of growth at 20 ppm in data set [1] was at least 80%. The pest or weed control at 200 ppm with Phakopsora pachyrhizi was at least 80%. In addition, the pest or weed control at 200 ppm in data set [2] is at least 80%. Moreover, the pest or weed control at 200 ppm in data set [3] was at least 80%.
In the case of `FC(F)(F)c1nc(-c2ccc(Cn3cc(-c4cccnc4)nn3)cc2)no1` [Compound 1.23, 3-[4-[[4-(3-pyridyl)triazol-1-yl]methyl]phenyl]-5-(trifluoromethyl)-1,2,4-oxadiazole], the melting point was 159.8 to 163.1 °C. Further, the inhibition of growth at 20 ppm in data set [1] is at least 80%. In the data set on Phakopsora pachyrhizi, the pest or weed control at 200 ppm was at least 80%. The pest or weed control at 200 ppm in data set [2] was at least 80%. Moreover, in data set [3], the pest or weed control at 200 ppm is at least 80%.
`C[Si](C)(C)c1cn(Cc2ccc(-c3noc(C(F)(F)F)n3)cc2)nn1` [Compound 1.25, trimethyl-[1-[[4-[5-(trifluoromethyl)-1,2,4-oxadiazol-3-yl]phenyl]methyl]triazol-4-yl]silane] returned a melting point of 87.8 to 89.5 °C. In data set [1], the inhibition of growth at 20 ppm was at least 80%. Also, the pest or weed control at 200 ppm in the data set on Phakopsora pachyrhizi is at least 80%. Further, in data set [2], the pest or weed control at 200 ppm was at least 80%. Further, the pest or weed control at 200 ppm in data set [3] is at least 80%.
In the case of `CC(C)Cc1cn(Cc2ccc(-c3noc(C(F)(F)F)n3)cc2)nn1` [Compound 1.26, 3-[4-[(4-isobutyltriazol-1-yl)methyl]phenyl]-5-(trifluoromethyl)-1,2,4-oxadiazole], the melting point lay within 113.9 to 115.7 °C. In data set [1], the inhibition of growth at 20 ppm was at least 80%. The pest or weed control at 200 ppm in the data set on Phakopsora pachyrhizi is at least 80%. For the same compound, the pest or weed control at 200 ppm in data set [2] is at least 80%. Besides, the pest or weed control at 200 ppm in data set [3] is at least 80%.
In turn, `CC(C)(C)c1cn(Cc2ccc(-c3noc(C(F)(F)F)n3)cc2)nn1` [Compound 1.27, 3-[4-[(4-tert-butyltriazol-1-yl)methyl]phenyl]-5-(trifluoromethyl)-1,2,4-oxadiazole] registered a melting point of 90.4 to 92.3 °C. Also, the inhibition of growth at 20 ppm in data set [1] is at least 80%. Moreover, in the data set with Phakopsora pachyrhizi, the pest or weed control at 200 ppm was at least 80%. Also, in data set [2], the pest or weed control at 200 ppm was at least 80%. For the same compound, the pest or weed control at 200 ppm in data set [3] was at least 80%.
Compound `CC(C)(NC(=O)c1ccccc1)c1cn(Cc2ccc(-c3noc(C(F)(F)F)n3)cc2)nn1` [Compound 1.30, N-[1-methyl-1-[1-[[4-[5-(trifluoromethyl)-1,2,4-oxadiazol-3-yl]phenyl]methyl]triazol-4-yl]ethyl]benzamide] displayed a melting point of 157.6 to 161.9 °C. In data set [1], the inhibition of growth at 20 ppm is at least 80%. For the same compound, in the data set with Phakopsora pachyrhizi, the pest or weed control at 200 ppm is at least 80%. The pest or weed control at 200 ppm in data set [2] is at least 80%. Besides, the pest or weed control at 200 ppm in data set [3] is at least 80%.
In turn, `FC(F)(F)c1nc(-c2ccc(Cn3ccnn3)cc2)no1` [Compound 1.32, 3-[4-(triazol-1-ylmethyl)phenyl]-5-(trifluoromethyl)-1,2,4-oxadiazole] showed a melting point of 107.6 to 109.5 °C. Further, the inhibition of growth at 20 ppm in data set [1] was at least 80%. Besides, the pest or weed control at 200 ppm in the data set on Phakopsora pachyrhizi was at least 80%. Further, in data set [2], the pest or weed control at 200 ppm was at least 80%. Besides, the pest or weed control at 200 ppm in data set [3] was at least 80%.
In the case of `FC(F)(F)c1nc(-c2ccc(Cn3nccn3)cc2)no1` [Compound 1.33, 3-[4-(triazol-2-ylmethyl)phenyl]-5-(trifluoromethyl)-1,2,4-oxadiazole], the melting point is 105.4 to 107.9 °C. For the same compound, the inhibition of growth at 20 ppm in data set [1] was at least 80%. Further, in the data set on Phakopsora pachyrhizi, the pest or weed control at 200 ppm was at least 80%. In addition, the pest or weed control at 200 ppm in data set [2] was at least 80%. In addition, the pest or weed control at 200 ppm in data set [3] is at least 80%.
Compound `FC(F)(F)c1nc(-c2ccc(Cn3nc4ccccc4n3)cc2)no1` [Compound 1.34, 3-[4-(benzotriazol-2-ylmethyl)phenyl]-5-(trifluoromethyl)-1,2,4-oxadiazole] had a melting point of 112.4 to 116.6 °C. The inhibition of growth at 20 ppm in data set [1] was at least 80%. Further, in the data set with Phakopsora pachyrhizi, the pest or weed control at 200 ppm is at least 80%. Moreover, the pest or weed control at 200 ppm in data set [2] is at least 80%. In addition, the pest or weed control at 200 ppm in data set [3] is at least 80%.
`FC(F)(F)c1nc(-c2ccc(Cn3nnc4ccccc43)cc2)no1` [Compound 1.35, 3-[4-(benzotriazol-1-ylmethyl)phenyl]-5-(trifluoromethyl)-1,2,4-oxadiazole] showed a melting point of 142.3 to 143.2 °C. The inhibition of growth at 20 ppm in data set [1] was at least 80%. Further, the pest or weed control at 200 ppm in the data set on Phakopsora pachyrhizi is at least 80%. Moreover, the pest or weed control at 200 ppm in data set [2] was at least 80%. Besides, in data set [3], the pest or weed control at 200 ppm was at least 80%.
On to `FC(F)(F)c1nc(-c2ccc(Cn3cncn3)c(Cl)c2)no1` [Compound 1.99, 3-[3-chloro-4-(1,2,4-triazol-1-ylmethyl)phenyl]-5-(trifluoromethyl)-1,2,4-oxadiazole], for which the melting point was in the range of 63 to 71 °C. Further, the inhibition of growth at 20 ppm in data set [1] was at least 80%. The pest or weed control at 200 ppm with Phakopsora pachyrhizi was at least 80%. The pest or weed control at 200 ppm in data set [2] is at least 80%. The pest or weed control at 200 ppm in data set [3] was at least 80%.
`Fc1cc(-c2noc(C(F)(F)F)n2)ccc1Cn1cncn1` [Compound 1.101, 3-[3-fluoro-4-(1,2,4-triazol-1-ylmethyl)phenyl]-5-(trifluoromethyl)-1,2,4-oxadiazole]: the melting point lay in the range of 52 to 63 °C. For the same compound, in data set [1], the inhibition of growth at 20 ppm is at least 80%. For the same compound, the pest or weed control at 200 ppm in the data set with Phakopsora pachyrhizi was at least 80%. Moreover, the pest or weed control at 200 ppm in data set [2] was at least 80%. Moreover, the pest or weed control at 200 ppm in data set [3] was at least 80%.
`Cc1nn(Cc2ccc(-c3noc(C(F)(F)F)n3)cc2)c(C)c1C` [Compound 1.146, 5-(trifluoromethyl)-3-[4-[(3,4,5-trimethylpyrazol-1-yl)methyl]phenyl]-1,2,4-oxadiazole] had a melting point of 99.4 to 102 °C. Moreover, the inhibition of growth at 20 ppm in data set [1] was at least 80%. The pest or weed control at 200 ppm in the data set on Phakopsora pachyrhizi is at least 80%. Moreover, the pest or weed control at 200 ppm in data set [2] is at least 80%. The pest or weed control at 200 ppm in data set [3] is at least 80%.
Compound `O=C(c1cnn(Cc2ccc(-c3noc(C(F)(F)F)n3)cc2)c1)N1CCOCC1` [Compound 1.261, morpholino-[1-[[4-[5-(trifluoromethyl)-1,2,4-oxadiazol-3-yl]phenyl]methyl]pyrazol-4-yl]methanone] returned a melting point of 125 to 135 °C. In data set [1], the inhibition of growth at 20 ppm is at least 80%. For the same compound, in the data set on Phakopsora pachyrhizi, the pest or weed control at 200 ppm was at least 80%. The pest or weed control at 200 ppm in data set [2] was at least 80%. The pest or weed control at 200 ppm in data set [3] was at least 80%.
For `CN(C)CCOC(=O)c1cnn(Cc2ccc(-c3noc(C(F)(F)F)n3)cc2)c1` [Compound 1.265, 2-(dimethylamino)ethyl 1-[[4-[5-(trifluoromethyl)-1,2,4-oxadiazol-3-yl]phenyl]methyl]pyrazole-4-carboxylate], the melting point lay within 60 to 70 °C. Moreover, in data set [1], the inhibition of growth at 20 ppm was at least 80%. Further, the pest or weed control at 200 ppm with Phakopsora pachyrhizi was at least 80%. Moreover, the pest or weed control at 200 ppm in data set [2] is at least 80%. Besides, the pest or weed control at 200 ppm in data set [3] is at least 80%.
